Read-outs that look alike come from different tables or passages of the source.

For data set [1], the target named is T1, human DNA polymerase γ (Homo sapiens, UniProt P54098).
T1 construct: Mammalian DNA polymerases alpha, beta, gamma, and delta were partially purified from K562 celles; endogenous in cells; host or cells: K562 (chronic myelogenous leukemia tissue culture line)
T1 sequence (P54098 26-1239 limits assumed): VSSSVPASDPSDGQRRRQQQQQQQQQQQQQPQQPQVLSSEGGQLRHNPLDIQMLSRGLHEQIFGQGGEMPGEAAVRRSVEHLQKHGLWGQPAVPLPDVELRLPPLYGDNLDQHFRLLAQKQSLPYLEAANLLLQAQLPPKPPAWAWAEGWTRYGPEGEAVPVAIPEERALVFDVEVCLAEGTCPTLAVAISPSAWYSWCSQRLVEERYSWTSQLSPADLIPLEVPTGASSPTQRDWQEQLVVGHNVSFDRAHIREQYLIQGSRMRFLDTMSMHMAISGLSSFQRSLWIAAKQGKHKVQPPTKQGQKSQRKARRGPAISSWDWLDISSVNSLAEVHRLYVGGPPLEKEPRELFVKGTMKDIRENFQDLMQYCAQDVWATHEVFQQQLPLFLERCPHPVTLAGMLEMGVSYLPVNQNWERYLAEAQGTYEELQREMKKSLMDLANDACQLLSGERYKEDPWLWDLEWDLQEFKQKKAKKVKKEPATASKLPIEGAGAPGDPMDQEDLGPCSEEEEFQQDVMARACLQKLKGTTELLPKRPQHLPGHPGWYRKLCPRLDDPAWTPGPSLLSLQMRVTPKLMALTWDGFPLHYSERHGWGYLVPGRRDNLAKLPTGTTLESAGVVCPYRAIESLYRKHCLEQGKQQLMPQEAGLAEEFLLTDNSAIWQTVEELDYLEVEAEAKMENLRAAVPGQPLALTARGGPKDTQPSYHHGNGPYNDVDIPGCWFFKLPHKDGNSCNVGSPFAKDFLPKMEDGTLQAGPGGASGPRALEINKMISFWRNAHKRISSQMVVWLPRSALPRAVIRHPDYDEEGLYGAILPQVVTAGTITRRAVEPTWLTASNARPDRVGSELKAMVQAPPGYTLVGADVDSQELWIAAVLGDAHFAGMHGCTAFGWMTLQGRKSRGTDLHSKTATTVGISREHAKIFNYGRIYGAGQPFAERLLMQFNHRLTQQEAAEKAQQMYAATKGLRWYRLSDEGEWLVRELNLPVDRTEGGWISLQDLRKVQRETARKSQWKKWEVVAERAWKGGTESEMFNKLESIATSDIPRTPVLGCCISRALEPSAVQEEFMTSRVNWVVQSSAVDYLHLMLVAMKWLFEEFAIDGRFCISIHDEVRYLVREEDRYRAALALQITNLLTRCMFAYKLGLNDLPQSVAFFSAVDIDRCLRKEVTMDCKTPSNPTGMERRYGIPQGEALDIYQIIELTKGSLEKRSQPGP
T1 sequence (Q9UHN1 25-485 partner limits assumed): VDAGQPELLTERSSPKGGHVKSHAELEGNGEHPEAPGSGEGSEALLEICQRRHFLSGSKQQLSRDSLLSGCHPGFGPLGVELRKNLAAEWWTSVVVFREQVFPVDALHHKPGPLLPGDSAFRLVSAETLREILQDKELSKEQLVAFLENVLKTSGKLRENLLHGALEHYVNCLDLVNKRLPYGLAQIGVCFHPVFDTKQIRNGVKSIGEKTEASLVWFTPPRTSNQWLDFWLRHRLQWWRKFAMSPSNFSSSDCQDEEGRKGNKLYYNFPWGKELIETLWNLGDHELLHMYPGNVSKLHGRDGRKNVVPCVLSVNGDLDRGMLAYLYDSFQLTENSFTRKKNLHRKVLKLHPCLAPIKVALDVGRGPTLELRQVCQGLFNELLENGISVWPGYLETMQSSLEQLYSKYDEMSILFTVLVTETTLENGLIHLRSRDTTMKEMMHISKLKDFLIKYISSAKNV
Kind of data set: Human DNA polymerase inhibition, gamma. The format is biochemical. The conditions noted are these: for remaining activity at 100 µM: read-out: % Control at 100 μM ± S.D. An excerpt: Viral DNA polymerases (HSV-1, HSV-2, EBV) were purified by previously published methods (Derce, D. K. F. Bastow, and Y. C. Cheng (1982) J. Boil. Chem. 257:10251-10260; Ostrander, M., and Y. C. Cheng (1980) Biochim. Biophys. Acta 609:232-245; Tan, R. S., A. Datta. and Y. C. Cheng (1982) J. Virol. 44:893-899). These procedures generally included sequential chromatography on DEAE-cellulose. HIV reverse transcriptase was purified by antibody affinity column chromatography as descrbed (Starnes. M. C. and Y. C. Cheng (1989) J. Biol. Chem. 264:7073-7077). The purified enzymes were dialyzed against and stored in 50 mM Tris-HCl (pH 7.5) containing 1 mM each of DTT, EDTA and PMSF plus 30% glycerol. Mammalian DNA polymerases alpha, beta, gamma, and delta were partially purified from K562 celles (chronic myelogenous leukemia tissue culture line). Briefly, washed cell pellets were extracted and passed throgh DEAE-cellulose in the presence of 300 mM KPO4 (pH 7.5) as previously described (Starnes, M. C., and Y. C. Cheng (1987) J. Biol. Chem 282:988-981) to remove DNA. The column flow-through fractions were dialyzed against buffer which contained 50 mM Tris-HCl (pH 7.5), and fractionated on a single-stranded DNA-cellulose column with a 0-1M KCl gradient.
In accordance with the teaching of the present invention similar enzyme inhibition assays were also conducted with respect to mammalian enzymes, more particularly, human DNA polymerase.

Data set [2] has as its system uninfected H9 cells. The experiment in a line: Toxicity: cell density of uninfected H9 cultures. Type of data set: cell-based. The conditions noted are these: 3 days. The protocol: (§1) In addition to testing the activity of TPFA against HIV enzyme, the activity against the virus itself was also determined in accordance with the following protocol. The experimental protocol involved incubatino of H9 lymphocytes (3.5×10^6 cells/ml) in the presence or absence of HIV-1 (HTLV-IIIB) for one hour at 37° C. Cells were washed thoroughly to remove unabsorbed virions and re-suspended at 4×10^5 cells/ml in culture medium. Aliquots (1 ml) were placed in wells of 24 well culture plates containing any equal volume of test compound (diluted in culture medium). After incubation for three days at 37° C., cell density of uninfected cultures was determined to assess toxicity of the test compound. A p24 antigen capture was used to determine the level of HIV infection in HIV treated cultures. The ability of test compounds to inhibit HIV replication was measured at different concentrations relative to infected, untreated cultures. Test compounds were considered to be active if p24 levels were <70% of infected, untreated cultures. Cytotoxicity in uninfect4ed H9 cells was not detected.

In data set [3] the test system is HIV-1 (HTLV-IIIB). The experiment in a line: HIV inhibition in cell culture, p24 antigen capture assay in H9 lymphocytes. The format is cell-based. As for the experimental part: as §1
Setting [4] is: Human immunodeficiency virus 1, IIIB, H9, 72 h, read-out: p24 Ave (%).

As for `O=C(O)P(O)(O)=S` [TPFA, thiophosphonoformic acid], the IC50 in data set [1] is greater than 100 µM. For the same compound, the remaining activity at 100 µM in data set [1] came out at 75 ± 3%. Besides, the Toxicity entry in data set [2] (drug conc. 0.1 μg/mL), in data set [2] (drug conc. 0.5 μg/mL), in data set [2] (drug conc. 2 μg/mL), in data set [2] (drug conc. 10 μg/mL), in data set [2] (drug conc. 50 μg/mL) and in data set [2] (drug conc. 200 μg/mL) was “non-T” in each case. Moreover, the activity at 0.1 µg/mL in data set [3] (setting [4]) worked out at 139%. The activity at 0.5 µg/mL in data set [3] (setting [4]) turned out to be 117%. The activity at 2 µg/mL in data set [3] (setting [4]) came out at 90%. Besides, the activity at 10 µg/mL in data set [3] (setting [4]) is 35%. The activity at 50 µg/mL in data set [3] (setting [4]) came out at 0%. Moreover, the activity at 200 µg/mL in data set [3] (setting [4]) was -3%. Also, the entries for the “Inhibition Score” value in data set [3] (drug conc. 10 μg/mL), in data set [3] (drug conc. 50 μg/mL) and in data set [3] (drug conc. 200 μg/mL) were “** (**25-49% control p24)”, “*** (***<25% control p24)” and “*** (***<25% control p24)”, respectively.
Take `O=C(O)P(=O)(O)O` [PFA, phosphonoformic acid]: the remaining activity at 100 µM in data set [1] (Pol γ, 100 μM, "activated" DNA) is 55 ± 5%. For the same compound, in data set [1] (Pol γ, "activated" DNA, read-out: ID50 (the source's name)), the IC50 was greater than 100 µM. Also, the Toxicity result in data set [2] (drug conc. 1.9 μg/mL), in data set [2] (drug conc. 7.5 μg/mL), in data set [2] (drug conc. 30 μg/mL) and in data set [2] (drug conc. 120 μg/mL) was “non-T” each time. Also, in data set [3] (Human immunodeficiency virus 1, IIIB, H9, 72 h, drug conc. 1.9 μg/mL, % of infected untreated control p24, read-out: p24 Ave (%)), the activity at 1.9 µg/mL was 88%. The activity at 7.5 µg/mL in data set [3] (Human immunodeficiency virus 1, IIIB, H9, 72 h, drug conc. 7.5 μg/mL, % of infected untreated control p24, read-out: p24 Ave (%)) was determined as 35%. Also, the activity at 30 µg/mL in data set [3] (Human immunodeficiency virus 1, IIIB, H9, 72 h, drug conc. 30 μg/mL, % of infected untreated control p24, read-out: p24 Ave (%)) was determined as 10%. The activity at 120 µg/mL in data set [3] (Human immunodeficiency virus 1, IIIB, H9, 72 h, drug conc. 120 μg/mL, % of infected untreated control p24, read-out: p24 Ave (%)) was -2%. In addition, the “Inhibition Score” value in data set [3] (drug conc. 7.5 μg/mL) is “** (**25-49% control p24)”; in data set [3] (drug conc. 30 μg/mL), “*** (***<25% control p24)”; in data set [3] (drug conc. 120 μg/mL) it was “*** (***<25% control p24)”.

(Values after patent US5072032A, “Preparation and use of thiophosphonates and thio-analogues of phosphonoformic acid” (priority 1989, dated 1991).)
